How the values were obtained:
[1] = Determination of pKa of formulated lipids (TNS fluorescence assay in lipid nanoparticles); type: physicochemical; details: probe TNS (2-(p-toluidino)-6-napthalene sulfonic acid); lipid formulated in LNP (compound/DSPC/cholesterol/PEG-lipid); pH giving half-maximal TNS fluorescence
Text: As described elsewhere, the pKa of formulated lipids is correlated with the effectiveness of LNPs for delivery of nucleic acids (see Jayaraman et al, Angewandte Chemie, International Edition (2012), 51(34), 8529-8533; Semple et al, Nature Biotechnology 28, 172-176 (2010)). In some embodiments, the preferred range of pKa is ˜5 to ˜7. […] Lipid nanoparticles comprising compound of structure (I)/DSPC/cholesterol/PEG-lipid (50/10/38.5/1.5 or 47.5:10:40.8:1.7 mol %) in PBS at a concentration of 0.4 mM total lipid were prepared using the in-line process as described in Example 1. TNS was prepared as a 100 μM stock solution in distilled water. Vesicles were diluted to 24 μM lipid in 2 mL of buffered solutions containing 10 mM HEPES, 10 mM MES, 10 mM ammonium acetate, and 130 mM NaCl, where the pH ranged from 2.5 to 11. An aliquot of the TNS solution was added to give a final concentration of 1 μM and following vortex mixing fluorescence intensity was measured at room temperature in a SLM Aminco Series 2 Luminescence Spectrophotometer using excitation and emission wavelengths of 321 nm and 445 nm. A sigmoidal best fit analysis was applied to the fluorescence data and the pKa was measured as the pH giving rise to half-maximal fluorescence intensity.

[2] = tested on: luciferase expression in the liver (FLuc mRNA); assay: Luciferase mRNA in vivo evaluation using lipid nanoparticle compositions; set-up: species or system mice (C57BL/6, CD-1); details: LNP with FLuc mRNA, tail vein injection, liver 4 hours after administration; for Liver Luc @ 0.5 mg/kg (ng luc/g liver): 0.5 mg mRNA/kg; for Liver Luc (ng luc/g liver), *dosed at 0.3 mg/kg: dosed at 0.3 mg/kg (footnote *)
Experimental: A lipid of structure (I), DSPC, cholesterol and PEG-lipid were solubilized in ethanol at a molar ratio of 50:10:38.5:1.5 or 47.5:10:40.8:1.7. Lipid nanoparticles (LNP) were prepared at a total lipid to mRNA weight ratio of approximately 10:1 to 30:1. Briefly, the mRNA was diluted to 0.2 mg/mL in 10 to 50 mM citrate buffer, pH 4. Syringe pumps were used to mix the ethanolic lipid solution with the mRNA aqueous solution at a ratio of about 1:5 to 1:3 (vol/vol) with total flow rates above 15 mL/min. The ethanol was then removed and the external buffer replaced with PBS by dialysis. Finally, the lipid nanoparticles were filtered through a 0.2 μm pore sterile filter.
Studies were performed in 6-8 week old female C57BL/6 mice (Charles River) 8-10 week old CD-1 (Harlan) mice (Charles River) according to guidelines established by an institutional animal care committee (ACC) and the Canadian Council on Animal Care (CCAC). Varying doses of mRNA-lipid nanoparticle were systemically administered by tail vein injection and animals euthanized at a specific time point (e.g., 4 hours) post-administration. Liver and spleen were collected in pre-weighed tubes, weights determined, immediately snap frozen in liquid nitrogen and stored at −80° C. until processing for analysis.
For liver, approximately 50 mg was dissected for analyses in a 2 mL FastPrep tubes (MP Biomedicals, Solon OH). ¼″ ceramic sphere (MP Biomedicals) was added to each tube and 500 μL of Glo Lysis Buffer—GLB (Promega, Madison Wis.) equilibrated to room temperature was added to liver tissue. Liver tissues were homogenized with the FastPrep24 instrument (MP Biomedicals) at 2×6.0 m/s for 15 seconds. Homogenate was incubated at room temperature for 5 minutes prior to a 1:4 dilution in GLB and assessed using SteadyGlo Luciferase assay system (Promega). Specifically, 50 μL of diluted tissue homogenate was reacted with 50 μL of SteadyGlo substrate, shaken for 10 seconds followed by 5 minute incubation and then quantitated using a CentroXS^3 LB 960 luminometer (Berthold Technologies, Germany). The amount of protein assayed was determined by using the BCA protein assay kit (Pierce, Rockford, Ill.). Relative luminescence units (RLU) were then normalized to total μg protein assayed. To convert RLU to ng luciferase a standard curve was generated with QuantiLum Recombinant Luciferase (Promega).
The FLuc mRNA (L-6107or L-7602) from Trilink Biotechnologies will express a luciferase protein, originally isolated from the firefly, photinus pyralis. FLuc is commonly used in mammalian cell culture to measure both gene expression and cell viability. It emits bioluminescence in the presence of the substrate, luciferin. This capped and polyadenylated mRNA is fully substituted with 5-methylcytidine and pseudouridine.
Compounds of structure (I) were formulated using the following molar ratio: 47.5% cationic lipid/ 10% distearoylphosphatidylcholine (DSPC)/40.8% Cholesterol/1.7% PEG lipid (“PEG-DMA” 2-[2-(ω-methoxy(polyethyleneglycol2000)ethoxy]-N,N-ditetradecylacetamide). Relative activity was determined by measuring luciferase expression in the liver 4 hours following administration via tail vein injection as described in Example 1.
The cationic lipids shown in Table 2 have previously been tested with nucleic acids. For comparative purposes, these lipids were also used to formulate lipid nanoparticles containing the FLue mRNA (L-6107) using an in line mixing method, as described in Example 1 and in PCT/US10/22614, which is hereby incorporated by reference in its entirety. Lipid nanoparticles may be formulated using the following molar ratio: 50% Cationic lipid/10% distearoylphosphatidylcholine (DSPC)/38.5% Cholesterol/1.5% PEG lipid (“PEG-DMG”, i.e., 1-(monomethoxy-polyethyleneglycol)-2,3-dimyristoylglycerol, with an average PEG molecular weight of 2000). In alternate embodiments, cationic lipid, DSPC, cholesterol and PEG-lipid are formulated at a molar ratio of approximately 47.5:10:40.8:1.7. […]

Row | Structure (SMILES) | pKa [1] | Liver Luc @ 0.5 mg/kg (ng luc/g liver) [2] [ng luc/g liver] | Liver Luc (ng luc/g liver), *dosed at 0.3 mg/kg [2]
1 | CCCCCCCCC(CCCCCC)COC(=O)CCCCCCCN(CCCCCCCC(=O)OCC(CCCCCC)CCCCCCCC)CCN(CC)CCCO (centres unmarked) [Compound 6] | 6.82 | – | –
2 | CCCCCCCCC(CCCCCC)COC(=O)CCCCCN(CCCCCC(=O)OCC(CCCCCC)CCCCCCCC)CCN(C)CCCCCCO (centres unmarked) [Compound 7] | 6.69 | 16 ± 14 | –
3 | CCCCCCCCC(CCCCCC)COC(=O)CCCCCCCN(CCCCCCCC(=O)OCC(CCCCCC)CCCCCCCC)CCN(CCO)CCCO (centres unmarked) [Compound 3] | 7.18 | – | –
4 | CCCCCCCCCN(CCCO)CCN(CCCCCC(=O)OCC(CCCCCC)CCCCCCCC)CCCCCC(=O)OCC(CCCCCC)CCCCCCCC (centres unmarked) [Compound 2] | 5.76 | – | 553 ± 291* ng luc/g liver
5 | CCCCCCCCCN(CCO)CCN(CCCCCC(=O)OCC(CCCCCC)CCCCCCCC)CCCCCC(=O)OCC(CCCCCC)CCCCCCCC (centres unmarked) [Compound 1] | 5.83 | – | 330 ± 70* ng luc/g liver
6 | CCCCCCCCC(CCCCCC)COC(=O)CCCCCN(CCCCCC(=O)OCC(CCCCCC)CCCCCCCC)CCN(C)CCCCCCCCCO (centres unmarked) [Compound 5] | 6.17 | 1597 ± 456 | –
7 | CCCCCCC(CCCC)C(=O)OCCCCCCCCCN(CCCCCCCCCOC(=O)C(CCCC)CCCCCC)CCN(C)CCCCCCCCCO (centres unmarked) [Compound 8] | 6.08 | 54 ± 10 | –
8 | CCCCCCCCC(CCCCCC)COC(=O)CCCCCN(CCCCCC(=O)OCC(CCCCCC)CCCCCCCC)CCN(C)CCO (centres unmarked) [Compound 4] | 6.91 | – | 50 ± 14* ng luc/g liver

Reference: patent US11639329B2, “Lipids for use in lipid nanoparticle formulations” (ACUITAS THERAPEUTICS, INC., priority 2017, dated 2023)
